The target in test [1] is T1, Cystathionine γ-lyase (CSE) (Rattus norvegicus, UniProt P18757). Briefly: TAP-1 assay of HSNO production from L-CysNO with or without […] PLP. The arrangement: gene Cth; recombinant rat CSE, purified from E. coli. The format is biochemical.
The target of test [2] is T1, Cystathionine γ-lyase (CSE). On the set-up: gene Cth.
For test [3] the target is unchanged. The arrangement: gene Cth. The source holds these as a separate data set.
Test [4] shares this target. Description: SSP4 fluorescence assay of Cys-SSH production from cystine after preincubation with L-CysNO; also a substrate (HSNO by TAP-1, pyruvate assay). The class given is biochemical. The arrangement: gene Cth; recombinant rat CSE expressed in E. coli as GST-CSE, GST tag cleaved.

T1 sequence (P18757 whole entry): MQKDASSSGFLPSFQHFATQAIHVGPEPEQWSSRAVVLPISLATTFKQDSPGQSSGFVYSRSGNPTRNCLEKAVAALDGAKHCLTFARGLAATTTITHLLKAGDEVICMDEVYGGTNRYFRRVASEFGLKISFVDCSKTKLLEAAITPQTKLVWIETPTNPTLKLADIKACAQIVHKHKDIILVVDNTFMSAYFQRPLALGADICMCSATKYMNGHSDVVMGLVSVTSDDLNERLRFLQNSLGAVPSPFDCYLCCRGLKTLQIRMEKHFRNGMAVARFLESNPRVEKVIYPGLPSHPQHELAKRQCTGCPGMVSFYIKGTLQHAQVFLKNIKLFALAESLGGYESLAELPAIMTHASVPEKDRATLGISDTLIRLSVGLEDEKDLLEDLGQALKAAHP

In the case of `Cc1ncc(COP(=O)(O)O)c(C=O)c1O` [PLP, pyridoxal 5′-phosphate], the “TAP-1 assay of HSNO production from L-CysNO with or without 50 μM PLP” value in test [1] is “The PLP-dependent β-lyase activity of CSE toward L-CysNO—but not D-CysNO—in producing HSNO was evident”.
As for `N[C@@H](CSSC[C@H](N)C(=O)O)C(=O)O` [cystine], in test [2], the “SSP4 fluorescence assay of Cys-SSH formed from 1 mM cystine (β-lyase activity)” value is “The Cys-SSH produced by CSE with cystine as the substrate was measured by using SSP4”.
For the molecule `N[C@@H](CCSC[C@H](N)C(=O)O)C(=O)O` [cystathionine], the “DTNB assay of cysteine formed from 1 mM cystathionine (γ-lyase activity)” value in test [3] is reported as “The cysteine produced by CSE from cystathionine was measured by DTNB assay”.
`N[C@@H](CSN=O)C(=O)O` [L-CysNO, L-S-nitrosocysteine]: in test [4], the 50% inhibitory concentration (IC50) was determined as 10 µM.

In general, IC50 refers to the concentration at which inhibition is half-maximal.

The values above are taken from paper PMC12466479, “The Supersulfide-Producing Activity of Rat Cystathionine γ-Lyase Is Irreversibly Inactivated by L-CysNO but Not by L-GSNO” (Antioxidants, 2025).
